In patent US11607458B2 (Georgia State University Research Foundation, Inc, priority 2017, dated 2023):
Values joined by “and” are separate entries in the source; they are usually repeats but may differ in a detail not shown here. Identical values can stand only once.

Experiments:
[1] = HPLC studies of reaction kinetics of tetrazine prodrugs with cyclooctyne alkynes (Kobs, second-order rate constant k2); type: physicochemical; settings: for Kobs: prodrug 25 μM; for k2 at 37° C. (second order rate constant) / k2 at r.t (second order rate constant): PBS containing 10% DMSO, n = 3
Experimental: Stock solution preparation. Each of the tetrazine prodrugs (compounds 1b, 1c, and 1d) was dissolved in DMSO to afford a 500-μM stock solution. Each of the alkynes (compounds 2a, 2b, 2c, and 2d) was dissolved in DMSO to afford a 50-mM stock solution. Doxorubicin (Dox) and dansylamino compound (DA) 1.1b were each dissolved in DMSO to afford 1-mM stock solutions.
(§1) HPLC method A.: mobile phase A (10 mM NaH2PO4 in water, pH=5.0) and mobile phase B (ACN), flow rate: 1 mL/min, running time: 30 min, the gradient elution method: 25% B from 0 to 6 min, 25% to 50% B from 6 to 8 min, 50% B from 8 to 15 min, 50% to 99% B from 15 to 20 min, 99% B from 20 to 25 min, 99% to 25% B from 25 to 30 min. Detection wavelength: 256 nm. Column: Waters C18 3.5 μM, 4.6×100 mm. Injection volume: 20 μL.
as §1, with “method B:” for “method A.:”, “method: 30%” for “method: 25%”, “min, 30%” for “min, 25%”, “25 min.” for “25 min,”, “to 30%” for “to 25%”, “Detection wavelength 1: 256, detection wavelength 2: 337” for “Detection wavelength: 256”
(§2) General procedures HPLC studies of reaction kinetics. To three 20-ml vials with 9 mL PBS were added a solution of tetrazine prodrug (500 μL, 500 μM). 350 μL, 300 μL and 250 μL DMSO were added to vial respectively, and then 150 μL, 200 μL and 250 μL of the alkyne solution (50 mM in DMSO) were added to the vials to afford final concentrations of alkyne 0.75 mM, 1 mM and 1.25 mM in PBS (10% DMSO, 25 μM prodrug) respectively. The reaction was stirred at r.t or 37° C. respectively. Every 30 min about 500 μL reaction mixtures were taken out and 20 μL of them were injected into the HPLC by the autosampler; the rest of them were poured back to the reaction mixture. (Note: In the cases of prodrugs 1d or 1b reacting with alkyne 2d at 37° C., the final concentrations of 2d in the kinetic studies were 250 μM, 300 μM and 350 μM).
Determination of second-order rate constants. The reaction rate constant, kobs, was calculated for each concentration of the alkyne by fitting the prodrug areas versus time using eq. 1: Y=A exp(−kobst) eq. 1 where Y is the prodrug area, and t is time. The pseudo-first-order rate constant, kobs, was then plotted against the concentration of alkyne to yield the second-order rate constant using eq 2: kobs=k2[Alkyne] eq. 2 where k2 is the second-order rate constant.

[2] = Release of the parent drug (Dox / dansyl amine) from prodrugs treated with alkynes, monitored by HPLC; type: physicochemical; settings: r.t, PBS 10% DMSO
Experimental: (§3) Standard curve of Dox concentration measurement. To four HPLC vials containing 0.9 mL PBS (size: 1.5 mL) were added 25, 15, 20, 10 μL Dox stock solution (1 mM) respectively. Then defined amounts DMSO (975, 985, 980, and 990 μL) were added to each vial to afford final concentration of four vials were 25, 15, 20, 10 μM in PBS (10% DMSO), respectively. The samples were analyzed with HPLC method A. Dox retention time: 4.0 min.
as §3, with “for DA” for “of Dox”, “B. DA” for “A. Dox”, “5.8” for “4.0”
as §2
Results. The results from the reaction kinetics studies of the tetrazine-cyclooctyne system are summarized below in Table 4. Prodrugs 1d or 1b (25 μM) were treated with alkynes 2d, 2c ,2a, or 2b at different concentrations at room temperature (r.t.) or 37° C., respectively. The prodrug consumption and release of the parent drug were monitored by HPLC (Table 4).

## C#CCOc1ccc(-c2nnc(C(=O)NCCCOCCOCCOCCCNS(=O)(=O)c3cccc4c(N(C)C)cccc34)nn2)cc1 [1d]
[1]; 37° C., alkyne 2b 0.75 mM, Expt. 1
  Kobs: 0.411 h⁻¹
[1]; 37° C., alkyne 2b 0.75 mM, Expt. 2
  Kobs: 0.388 h⁻¹
[1]; 37° C., alkyne 2b 0.75 mM, Expt. 3
  Kobs: 0.353 h⁻¹
[1]; 37° C., alkyne 2b 1.00 mM, Expt. 1
  Kobs: 0.548 h⁻¹
[1]; 37° C., alkyne 2b 1.00 mM, Expt. 2
  Kobs: 0.511 h⁻¹
[1]; 37° C., alkyne 2b 1.00 mM, Expt. 3
  Kobs: 0.453 h⁻¹
[1]; 37° C., alkyne 2b 1.25 mM, Expt. 1
  Kobs: 0.695 h⁻¹
[1]; 37° C., alkyne 2b 1.25 mM, Expt. 2
  Kobs: 0.636 h⁻¹
[1]; 37° C., alkyne 2b 1.25 mM, Expt. 3
  Kobs: 0.561 h⁻¹
[1]; 37° C., alkyne 2c 0.75 mM, Expt. 1
  Kobs: 0.0506 h⁻¹
[1]; 37° C., alkyne 2c 0.75 mM, Expt. 2
  Kobs: 0.0584 h⁻¹
[1]; 37° C., alkyne 2c 0.75 mM, Expt. 3
  Kobs: 0.0599 h⁻¹
[1]; 37° C., alkyne 2c 1.00 mM, Expt. 1
  Kobs: 0.0670 h⁻¹
[1]; 37° C., alkyne 2c 1.00 mM, Expt. 2
  Kobs: 0.0781 h⁻¹
[1]; 37° C., alkyne 2c 1.00 mM, Expt. 3
  Kobs: 0.0801 h⁻¹
[1]; 37° C., alkyne 2c 1.25 mM, Expt. 1
  Kobs: 0.083 h⁻¹
[1]; 37° C., alkyne 2c 1.25 mM, Expt. 2
  Kobs: 0.0978 h⁻¹
[1]; 37° C., alkyne 2c 1.25 mM, Expt. 3
  Kobs: 0.101 h⁻¹
[1]; 37° C., alkyne 2d 0.25 mM, Expt. 1
  Kobs: 1.82 h⁻¹
[1]; 37° C., alkyne 2d 0.25 mM, Expt. 2
  Kobs: 1.64 h⁻¹
[1]; 37° C., alkyne 2d 0.25 mM, Expt. 3
  Kobs: 1.90 h⁻¹
[1]; 37° C., alkyne 2d 0.3 mM, Expt. 1
  Kobs: 2.15 h⁻¹
[1]; 37° C., alkyne 2d 0.3 mM, Expt. 2
  Kobs: 1.94 h⁻¹
[1]; 37° C., alkyne 2d 0.3 mM, Expt. 3
  Kobs: 2.26 h⁻¹
[1]; 37° C., alkyne 2d 0.35 mM, Expt. 1
  Kobs: 2.53 h⁻¹
[1]; 37° C., alkyne 2d 0.35 mM, Expt. 2
  Kobs: 2.25 h⁻¹
[1]; 37° C., alkyne 2d 0.35 mM, Expt. 3
  Kobs: 2.65 h⁻¹
[1]; alkyne 2b, 37° C.
  k2 at 37° C. (second order rate constant): 0.14 M⁻¹ s⁻¹ and 0.14 ± 0.04 M⁻¹ s⁻¹
[1]; alkyne 2b, r.t
  k2 at r.t (second order rate constant): 0.042 M⁻¹ s⁻¹ and 0.042 ± 0.012 M⁻¹ s⁻¹
[1]; alkyne 2c, 37° C.
  k2 at 37° C. (second order rate constant): 0.021 M⁻¹ s⁻¹ and 0.021 ± 0.005 M⁻¹ s⁻¹
[1]; alkyne 2c, r.t
  k2 at r.t (second order rate constant): 0.0075 M⁻¹ s⁻¹ and 0.0075 ± 0.0009 M⁻¹ s⁻¹
[1]; alkyne 2d, 37° C.
  k2 at 37° C. (second order rate constant): 1.9 M⁻¹ s⁻¹ and 1.9 ± 0.4 M⁻¹ s⁻¹
[1]; alkyne 2d, r.t
  k2 at r.t (second order rate constant): 0.25 M⁻¹ s⁻¹ and 0.25 ± 0.06 M⁻¹ s⁻¹
[1]; r.t, alkyne 2b 0.75 mM, Expt. 1
  Kobs: 0.125 h⁻¹
[1]; r.t, alkyne 2b 0.75 mM, Expt. 2
  Kobs: 0.115 h⁻¹
[1]; r.t, alkyne 2b 0.75 mM, Expt. 3
  Kobs: 0.13 h⁻¹
[1]; r.t, alkyne 2b 1.00 mM, Expt. 1
  Kobs: 0.155 h⁻¹
[1]; r.t, alkyne 2b 1.00 mM, Expt. 2
  Kobs: 0.148 h⁻¹
[1]; r.t, alkyne 2b 1.00 mM, Expt. 3
  Kobs: 0.175 h⁻¹
[1]; r.t, alkyne 2b 1.25 mM, Expt. 1
  Kobs: 0.199 h⁻¹
[1]; r.t, alkyne 2b 1.25 mM, Expt. 2
  Kobs: 0.180 h⁻¹
[1]; r.t, alkyne 2b 1.25 mM, Expt. 3
  Kobs: 0.22 h⁻¹
[1]; r.t, alkyne 2c 0.75 mM, Expt. 1
  Kobs: 0.0203 h⁻¹
[1]; r.t, alkyne 2c 0.75 mM, Expt. 2
  Kobs: 0.0201 h⁻¹
[1]; r.t, alkyne 2c 0.75 mM, Expt. 3
  Kobs: 0.0217 h⁻¹
[1]; r.t, alkyne 2c 1.00 mM, Expt. 1
  Kobs: 0.0273 h⁻¹
[1]; r.t, alkyne 2c 1.00 mM, Expt. 2
  Kobs: 0.0269 h⁻¹
[1]; r.t, alkyne 2c 1.00 mM, Expt. 3
  Kobs: 0.0289 h⁻¹
[1]; r.t, alkyne 2c 1.25 mM, Expt. 1
  Kobs: 0.0339 h⁻¹
[1]; r.t, alkyne 2c 1.25 mM, Expt. 2
  Kobs: 0.0324 h⁻¹
[1]; r.t, alkyne 2c 1.25 mM, Expt. 3
  Kobs: 0.0359 h⁻¹
[1]; r.t, alkyne 2d 0.75 mM, Expt. 1
  Kobs: 0.752 h⁻¹
[1]; r.t, alkyne 2d 0.75 mM, Expt. 2
  Kobs: 0.704 h⁻¹
[1]; r.t, alkyne 2d 0.75 mM, Expt. 3
  Kobs: 0.756 h⁻¹
[1]; r.t, alkyne 2d 1.00 mM, Expt. 1
  Kobs: 0.980 h⁻¹
[1]; r.t, alkyne 2d 1.00 mM, Expt. 2
  Kobs: 0.802 h⁻¹
[1]; r.t, alkyne 2d 1.00 mM, Expt. 3
  Kobs: 1.01 h⁻¹
[1]; r.t, alkyne 2d 1.25 mM, Expt. 1
  Kobs: 1.20 h⁻¹
[1]; r.t, alkyne 2d 1.25 mM, Expt. 2
  Kobs: 1.10 h⁻¹
[1]; r.t, alkyne 2d 1.25 mM, Expt. 3
  Kobs: 1.26 h⁻¹
[2]; alkyne 2b
  Time of the Dox peak (in brackets in the Dox Peak % cell): 16 h
[2]; alkyne 2c
  Time of the Dox peak (in brackets in the Dox Peak % cell): 20 h
[2]; alkyne 2d
  Time of the Dox peak (in brackets in the Dox Peak % cell): 48 h
